# Data published in patent US12370193B2, “Method of inhibiting TREM-1” (UNIVERSITY OF FLORIDA RESEARCH FOUNDATION, INCORPORATED, priority 2019, dated 2025).
# Tests used:
# [1] = molecular target: T1, LXRα LBD (Homo sapiens, UniProt Q13133); experiment: Differential HDX-MS of LXRα LBD; type: binding; settings: 1:10 molar excess of ligand
# T1 construct: 10 μM of the apo protein (LXRα LBD and PPARγ LBD) was mixed with 1:10 molar excess of ligand
# T1 sequence (Q13133 209-447 limits assumed): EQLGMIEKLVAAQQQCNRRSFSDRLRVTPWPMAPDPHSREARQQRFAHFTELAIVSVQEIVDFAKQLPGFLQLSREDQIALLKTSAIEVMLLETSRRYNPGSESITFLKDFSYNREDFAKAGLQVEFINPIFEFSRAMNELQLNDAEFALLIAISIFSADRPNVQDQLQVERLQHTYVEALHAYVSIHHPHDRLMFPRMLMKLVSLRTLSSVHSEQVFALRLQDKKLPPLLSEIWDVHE
# Protocol: Hydrogen-deuterium exchange (HDX) detected by mass spectrometry (MS): Solution-phase amide HDX experiments were carried out with a fully automated system (CTC HTS PAL, LEAP Technologies, Carrboro, NC; housed inside a 4° C. cabinet) as described previously with the modifications described below^41.
# Peptide Identification: Peptides were identified using tandem MS (MS/MS) experiments performed with a QExactive (ThermoFisher, San Jose, CA) over a 70 min gradient. Product ion spectra were acquired in a data-dependent mode and the five most abundant ions were selected for the product ion analysis per scan event. […]
# Hydrogen/deuterium exchange (HDX) analysis: 10 μM of the apo protein (LXRα LBD and PPARγ LBD) was mixed with 1:10 molar excess of ligand and incubated for 2 hours at 4° C. for complex formation before subjecting them to HDX analysis. […] The intensity weighted mean m/z centroid value of each peptide envelope was calculated and subsequently converted into a percentage of deuterium incorporation. […] In the absence of a fully deuterated control, 100% deuterium incorporation was calculated theoretically, and corrections for back-exchange were made on the basis of an estimated 70% deuterium recovery and accounting for 80% final deuterium concentration in the sample (1:5 dilution in D2O HDX buffer). […]
# [2] = test system: EL4 cells; experiment: RORγ target gene expression in PMA/ionomycin stimulated EL4 cells; type: cell-based; settings: PMA and ionomycin, compound at 10 μM
# Text: FIG. 1D is a graph showing PPARγ target genes (aP2 and CD36) expression in OP9 cells with and without MDI (IBMX, dexamethasone, insulin) treatment. […] Specific residues driving the interaction labelled and shown as sticks as well. […] Quantitative RT-PCR: Total RNA was extracted from EL4 or RAW264.7 cells using RNeasy Plus Micro Kit (Qiagen) and the RNA was reverse transcribed using the ABI reverse transcription kit (Applied Biosystems/Thermo Fisher Scientific, Waltham MA). Quantitative PCR was performed with a 7900HT Fast Real Time PCR System (Applied Biosystems) using SYBR green (Roche).
# [3] = test system: RAW264.7 cells; experiment: LXR target, cytokine and SENP gene expression in LPS-stimulated RAW264.7 cells; type: cell-based, mouse
# Protocol: FIGS. 3A-3D: Comparison with LXR agonist. […] FIGS. 3C and 3D show log 2 fold change of SENP3 expression in RAW264.7 cells mRNAseq and q-PCR.
# Quantitative RT-PCR: Total RNA was extracted from EL4 or RAW264.7 cells using RNeasy Plus Micro Kit (Qiagen) and the RNA was reverse transcribed using the ABI reverse transcription kit (Applied Biosystems/Thermo Fisher Scientific, Waltham MA). Quantitative PCR was performed with a 7900HT Fast Real Time PCR System (Applied Biosystems) using SYBR green (Roche).
# mRNA sequencing analysis: RAW264.7 cells RNA extraction protocol for RNA seq was derived from Qiagen Kit-74106. Total RNA was quantified using the Qubit 2.0 Fluorometer (Invitrogen, Carlsbad, CA) and run on the Agilent 2100 Bioanalyzer (Agilent Technologies, Santa Clara, CA) for quality assessment. RNA samples of good quality with RNA Integrity Number (RIN)>8.0 were further processed. A RNase-free working environment was maintained and RNase-free tips, Eppendorf tubes and plates were utilized for the subsequent steps. Messenger RNA was selectively isolated from total RNA (300 ng input) using poly-T oligos attached to magnetic beads and converted to sequence-ready libraries using the TruSeq stranded mRNA sample prep protocol (Cat. #: RS-122-2101, Illumina, San Diego, CA). The final libraries were validated on the bioanalyzer DNA chips and qPCR quantified using primers that recognize the illumina adaptors. The libraries were then pooled at equimolar ratios, quantified using qPCR and loaded onto the NextSeq 500 flow cell at 1.8 pM final concentration. They were sequenced using the high-output, paired-end, 75-bp chemistry. Demultiplexed and quality filtered raw reads (fastq) generated from the NextSeq 500 were trimmed (adaptor sequences) using Flexbar 2.4 and aligned to the mouse reference database (mm9) using TopHat version 2.0.9 (Trapnell et al., 2009). HTseq-count version 0.6.1 was used to generate gene counts and differential gene expression analysis was performed using Deseq2 (Anders and Huber, 2010).
compound,measurement,setting,value
"Cc1cc(CN2CCN(Cc3ccncc3)CC2)ccc1-c1ccc(C(O)(C(F)(F)F)C(F)(F)F)cc1 [SR1903, 1,1,1,3,3,3-hexafluoro-2-(2′-methyl-4′-((4-(pyridin-4-ylmethyl)piperazin-1-yl)methyl)-[1,1′-biphenyl]-4-yl)propan-2-ol]",deuterium exchange of LXRα LBD,[1],makes a direct interaction with the receptor
same,IL17A expression,[2],repressed
same,IL17F expression,[2],repressed
same,expression of ACACA and FASN,[3]; LPS-stimulated RAW264.7 cells,increased
same,expression of LXR target genes including ABCG1 and SCD,"[3]; LPS-stimulated RAW264.7 cells, RNA sequencing",increased the expression
same,expression of IL6 and IL33,"[3]; LPS-stimulated RAW264.7 cells, RNA sequencing, confirmed by qPCR",robustly dampened
same,expression of SENP2 and SENP6,"[3]; LPS-stimulated RAW cells, RNA sequencing",repressed
same,expression of SENP3,"[3]; LPS-stimulated RAW cells, RNA sequencing, qPCR",increased the expression
